Laboratory results as given in patent US10385056B2, “4-substituted pyrrolo[2,3-d]pyrimidine compound and use thereof” (JIANGSU CAREFREE PHARMACEUTICAL CO., LTD, priority 2014, dated 2019).

Tests used:
[1] = test system: Jurkat cells; assay: Inhibition of cell proliferation of human lymphocytoma (CCK-8); format: cell-based; details: 48 h, CCK-8, 450 nm absorption
Protocol: Spreading the Jurkat cells out for in-vitro cultivation on a 96-well plate with 1500 cells in each well, making the highest concentration of the compound be 50 μM in the cultivation system, and diluting the drug concentration according to 10-time step dilution.

[2] = target: T1, JAK3 (Homo sapiens, UniProt P52333); assay: Caliper Mobility Shift Assay, kinase inhibition; format: biochemical; details: ATP by Km value
T1 sequence (P52333 1-1124): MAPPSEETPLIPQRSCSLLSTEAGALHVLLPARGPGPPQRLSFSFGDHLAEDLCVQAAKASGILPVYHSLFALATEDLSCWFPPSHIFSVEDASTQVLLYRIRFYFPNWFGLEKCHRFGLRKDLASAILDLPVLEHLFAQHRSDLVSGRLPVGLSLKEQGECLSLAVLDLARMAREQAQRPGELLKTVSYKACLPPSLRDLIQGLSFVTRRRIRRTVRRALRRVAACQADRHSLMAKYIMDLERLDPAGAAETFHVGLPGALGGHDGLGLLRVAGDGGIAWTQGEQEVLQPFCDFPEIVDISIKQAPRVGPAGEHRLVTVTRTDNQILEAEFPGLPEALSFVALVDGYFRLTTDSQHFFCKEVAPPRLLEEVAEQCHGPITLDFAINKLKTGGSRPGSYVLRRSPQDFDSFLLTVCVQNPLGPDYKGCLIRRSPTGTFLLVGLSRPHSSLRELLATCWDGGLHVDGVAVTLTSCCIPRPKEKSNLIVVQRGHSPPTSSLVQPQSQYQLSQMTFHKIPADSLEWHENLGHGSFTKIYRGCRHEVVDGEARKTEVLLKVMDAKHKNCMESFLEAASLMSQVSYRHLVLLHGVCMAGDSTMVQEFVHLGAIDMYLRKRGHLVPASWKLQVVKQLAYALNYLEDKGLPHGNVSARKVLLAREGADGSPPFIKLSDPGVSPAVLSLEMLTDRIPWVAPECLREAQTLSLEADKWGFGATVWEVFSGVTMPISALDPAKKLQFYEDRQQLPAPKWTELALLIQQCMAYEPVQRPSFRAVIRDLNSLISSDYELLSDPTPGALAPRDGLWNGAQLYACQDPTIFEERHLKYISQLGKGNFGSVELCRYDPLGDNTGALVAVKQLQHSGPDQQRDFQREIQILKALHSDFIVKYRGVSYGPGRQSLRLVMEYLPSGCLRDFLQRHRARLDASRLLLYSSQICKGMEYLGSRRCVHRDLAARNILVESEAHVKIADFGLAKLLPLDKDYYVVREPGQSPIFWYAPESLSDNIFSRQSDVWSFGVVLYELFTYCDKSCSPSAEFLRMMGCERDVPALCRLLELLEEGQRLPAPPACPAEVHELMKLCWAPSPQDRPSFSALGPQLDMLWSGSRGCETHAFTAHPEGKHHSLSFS

[3] = target: JAK2 (Homo sapiens, UniProt O60674); assay: Caliper Mobility Shift Assay, kinase inhibition; format: biochemical; details: ATP by Km value
Sequence of JAK2 (O60674 whole entry, species assumed): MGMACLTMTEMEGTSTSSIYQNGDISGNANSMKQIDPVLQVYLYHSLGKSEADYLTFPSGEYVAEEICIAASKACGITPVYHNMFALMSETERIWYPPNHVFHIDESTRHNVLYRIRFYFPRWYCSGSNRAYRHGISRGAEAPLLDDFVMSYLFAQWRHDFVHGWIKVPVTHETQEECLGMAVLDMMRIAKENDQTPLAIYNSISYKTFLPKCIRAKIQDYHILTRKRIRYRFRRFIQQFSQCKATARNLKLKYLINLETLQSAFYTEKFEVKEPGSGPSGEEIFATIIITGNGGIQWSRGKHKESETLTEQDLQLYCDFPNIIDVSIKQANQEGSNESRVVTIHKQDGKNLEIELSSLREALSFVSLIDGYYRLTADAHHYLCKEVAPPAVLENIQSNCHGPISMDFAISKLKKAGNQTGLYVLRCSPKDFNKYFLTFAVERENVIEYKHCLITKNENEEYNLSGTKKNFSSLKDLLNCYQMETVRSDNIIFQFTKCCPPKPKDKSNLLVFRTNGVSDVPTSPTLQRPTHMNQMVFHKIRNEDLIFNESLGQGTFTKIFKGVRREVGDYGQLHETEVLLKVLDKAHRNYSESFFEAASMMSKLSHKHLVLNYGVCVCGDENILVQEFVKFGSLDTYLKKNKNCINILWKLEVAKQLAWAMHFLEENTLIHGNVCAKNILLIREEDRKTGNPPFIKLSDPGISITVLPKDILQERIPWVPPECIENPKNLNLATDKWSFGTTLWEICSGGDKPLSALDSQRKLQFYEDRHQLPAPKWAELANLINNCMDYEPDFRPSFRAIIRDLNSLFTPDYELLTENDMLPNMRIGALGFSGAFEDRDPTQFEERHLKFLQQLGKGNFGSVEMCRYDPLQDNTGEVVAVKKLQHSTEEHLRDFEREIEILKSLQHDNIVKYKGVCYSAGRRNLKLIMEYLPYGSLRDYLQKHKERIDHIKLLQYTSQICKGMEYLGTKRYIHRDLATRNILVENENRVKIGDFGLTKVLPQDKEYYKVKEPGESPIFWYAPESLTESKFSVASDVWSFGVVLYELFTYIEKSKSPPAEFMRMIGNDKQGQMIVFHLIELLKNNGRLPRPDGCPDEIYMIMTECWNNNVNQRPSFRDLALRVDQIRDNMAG

[4] = test system: rat with rheumatoid arthritis; assay: Collagen-induced rheumatoid arthritis model, arthritis score; format: in vivo; details: DBA/1J rat, bovine Type II collagen/CFA model, intragastric administration, scored 2 weeks after administration, 1-4 scoring method
Protocol: For the function of the compound inhibiting rheumatoid arthritis, selecting DBA/1J rat, carrying out subcutaneous injection after complete emulsion of 50 ug of bovine Type II collagen and isometric complete Freund's adjuvant (CFA). Strengthening immunization once 21 days after adequate emulsion of 50 ug of same antigen and incomplete Freund's adjuvant (IFA). Starting observation and recording from the 45th day. Using 1-4 scoring method: 1 score, normal; 2 scores, swelling of one joint; 3 scores, swelling of more than one joint but not all joints; 4 scores, severe swelling or stiffness of the whole claw. Adding scores of all claws to obtain the total score of arthritis in rat. Showing successful model establishment when the total joint score of the rat is more than 1. After successfully establishing the model of rat with rheumatoid arthritis, using the compound of the invention to feed the rat by intragastric administration and scoring arthritis of the rat 2 weeks after administration.

[5] = test system: phosphorylated STAT5; assay: CTLL-2 cells, IL-2 stimulated, Western blot of phosphorylation; format: cell-based; details: Mus musculus, starved 6 h with compound, IL-2 150 U/mL 10 min, phosphorylated STAT5 by Western blot, read-out: IC50 g (nM) STAT5
Protocol: (§1) Incubating for 10 min and collecting cells. Adding cell lysis buffer for cell lysis. Collecting protein to perform WEST-Blot detection, detecting phosphorylated JAK1, the phosphorylation of JAK2 and the phosphorylated STAT5, and obtaining the IC50 value.

[6] = test system: phosphorylated JAK1; assay: as above; format: cell-based; details: Mus musculus, starved 6 h with compound, IL-2 150 U/mL 10 min, phosphorylated JAK1 by Western blot, read-out: IC50 g (nM) JAK1
Protocol: as §1

[7] = test system: phosphorylation of JAK2; assay: as above; format: cell-based; details: Mus musculus, starved 6 h with compound, IL-2 150 U/mL 10 min, phosphorylation of JAK2 by Western blot, read-out: IC50 g (nM) JAK2
Protocol: as §1

[8] = target: JAK1 (Homo sapiens, UniProt P23458); assay: Caliper Mobility Shift Assay, kinase inhibition; format: biochemical; details: ATP by Km value
Sequence of JAK1 (P23458 whole entry, species assumed): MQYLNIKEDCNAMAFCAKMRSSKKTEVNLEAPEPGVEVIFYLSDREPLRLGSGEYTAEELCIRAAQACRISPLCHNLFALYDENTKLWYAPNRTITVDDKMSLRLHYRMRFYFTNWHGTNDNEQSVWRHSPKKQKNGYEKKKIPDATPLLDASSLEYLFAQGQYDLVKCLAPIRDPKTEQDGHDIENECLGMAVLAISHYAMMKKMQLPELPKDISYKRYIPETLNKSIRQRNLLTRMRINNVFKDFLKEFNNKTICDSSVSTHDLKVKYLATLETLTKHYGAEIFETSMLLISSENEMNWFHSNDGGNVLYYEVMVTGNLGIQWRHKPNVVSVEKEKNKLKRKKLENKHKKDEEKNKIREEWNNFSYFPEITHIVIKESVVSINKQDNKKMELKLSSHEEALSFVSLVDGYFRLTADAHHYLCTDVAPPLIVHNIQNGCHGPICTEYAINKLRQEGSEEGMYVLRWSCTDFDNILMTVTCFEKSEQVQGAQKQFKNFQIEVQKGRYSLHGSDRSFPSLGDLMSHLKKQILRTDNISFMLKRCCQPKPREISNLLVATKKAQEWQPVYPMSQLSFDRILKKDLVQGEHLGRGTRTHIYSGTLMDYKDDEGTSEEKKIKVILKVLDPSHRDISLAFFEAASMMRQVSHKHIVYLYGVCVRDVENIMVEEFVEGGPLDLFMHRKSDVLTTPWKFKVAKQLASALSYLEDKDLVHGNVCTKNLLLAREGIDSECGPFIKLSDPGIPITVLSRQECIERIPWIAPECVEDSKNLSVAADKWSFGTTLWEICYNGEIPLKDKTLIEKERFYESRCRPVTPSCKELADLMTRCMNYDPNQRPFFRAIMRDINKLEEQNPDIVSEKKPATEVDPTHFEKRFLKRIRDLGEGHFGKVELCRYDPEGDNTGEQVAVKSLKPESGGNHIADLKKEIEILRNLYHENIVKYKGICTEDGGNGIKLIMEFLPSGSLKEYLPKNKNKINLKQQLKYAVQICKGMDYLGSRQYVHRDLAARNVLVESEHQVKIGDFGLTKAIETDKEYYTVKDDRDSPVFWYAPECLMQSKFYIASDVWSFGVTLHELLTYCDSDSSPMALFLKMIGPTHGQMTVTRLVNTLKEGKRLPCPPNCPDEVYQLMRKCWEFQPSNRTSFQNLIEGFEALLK

Row | SMILES | IC50 [1] | IC50 [2] | IC50 [3] | Score of arthritis [4] | IC50 [5] | IC50 [6] | IC50 [7] | IC50 [8]
1 | CCCCS(=O)(=O)N1CC(CC#N)(n2cc(-c3ncnc4[nH]ccc34)c3ccccc32)C1 [Example 6, 2-(3-(3-(7H-pyrrole[2,3-d]pyrimidine-4-yl)-1H-indole-1-yl)-1-(butylsulfonyl)azetidine-3-yl)acetonitrile] | 458 nM | 200 nM | 7.1 nM | 2.3 | 322 nM | 22 nM | 8 nM | 22 nM
2 | CCS(=O)(=O)N1CC(CC#N)(n2cc(-c3ncnc4[nH]ccc34)c3cc(OC)ccc32)C1 [Example 64, 2-(1-(ethylsulfonyl)-3-(5-methoxyl-3-(7H-pyrrole[2,3-d]pyrimidine-4-yl)-1H-indole-1-yl)azetidine-3-yl)acetonitrile] | 136 nM | 262 nM | 2.9 nM | 2.3 | 201 nM | 42.9 nM | 28.7 nM | 23 nM
3 | CCS(=O)(=O)N1CC(CC#N)(n2cc(-c3ncnc4[nH]ccc34)c3ccc(F)cc32)C1 [Example 20, 2-(1-(ethylsulfonyl)-3-(6-fluoro-3-(7H-pyrrole[2,3-d]pyrimidine-4-yl)-1H-indole-1-yl)azetidine-3-yl)acetonitrile] | 225 nM | 28 nM | 0.61 nM | 1.6 | 309 nM | 18.5 nM | 15.2 nM | 0.5 nM
4 | CN(C)S(=O)(=O)N1CC(CC#N)(n2cc(-c3ncnc4[nH]ccc34)c3ccccc32)C1 [Example 7] | 123 nM | 116 nM | 1.5 nM | 2.5 | 214 nM | 45 nM | 9.6 nM | 15 nM
